Series [1] in a line: Light fastness test (retention of dye after 2 hours of high-pressure mercury lamp irradiation). As to conditions: 1 mg in 250 mL, 2 hours irradiation. The format is physicochemical. The protocol: The light fastness of each dye was examined in the following manner. One milligram of each dye was dissolved in 250 mL of each of n-decane, tetradecane, Isopar M, and Isopar G, and the solution was irradiated with light for 2 hours using photoreaction apparatus UVL-400HA (400-W high-pressure mercury lamp), manufactured by Riko-Kagaku Sangyo Co., Ltd. During the irradiation, the vessel was cooled with a coolant to keep the internal temperature at 10-30° C. The retention of the dye was determined through the following calculation to evaluate the light fastness. Retention of dye=(absorbance at absorption-maximum wavelength after irradiation)/(absorbance at absorption-maximum wavelength before irradiation)

The nature of series [2]: Solubility test in low-polarity solvents (saturated solution, λmax, solubility, εC). The conditions noted are these: for Solubility: saturated solution. In kind it is physicochemical. The method, then: The solubility of each dye in n-decane, tetradecane, Isopar M, Isopar G, and decalin was examined in the following manner. Each dye was added to each solvent until a dissolution residue came to remain, and this mixture was subjected to a 30-minute ultrasonic treatment at 30 degrees. The resultant mixture was allowed to stand at 5° C. for 24 hours and then subjected to centrifugal filtration (centrifugal force, 5,200×g) with a 0.1-μm filter using a microcentrifuge. The saturated solution obtained was diluted to an adequate concentration, and the solubility of each dye was calculated from a relationship with an extinction coefficient determined beforehand. Furthermore, the value of the product of the molar extinction coefficient ε (Lmol^−1cm^−1) and the concentration C (molL^−1) of the saturated solution, εC, was determined.
Sudan Black B (manufactured by Tokyo Kasei Kogyo Co., Ltd.), which is a commercial oil-soluble black dye, was added to n-decane until a dissolution residue came to remain, and this mixture was subjected to a 30-minute ultrasonic treatment at 30 degrees. The resultant mixture was allowed to stand at 5° C. for 24 hours and then subjected to centrifugal filtration (centrifugal force, 5,200×g) with a 0.1-μm filter using a microcentrifuge. The saturated n-decane solution obtained was diluted to an adequate concentration, and the solubility of the dye was calculated from a relationship with an extinction coefficient determined beforehand.

[3] abbreviates: n-decane, 400-W high-pressure mercury lamp.
Where [4] appears, read: n-decane, stood at 5° C. for 24 hours, 0.1-μm filter.

For the compound `CCCCC(CC)CN(CC(CC)CCCC)c1ccc(/N=N/c2snc(CC)c2C#N)c(C)c1` (stereo not drawn) [Dye 4], the “Light fastness: retention of dye” value in series [1] (Isopar G) came to 98%; in series [1] (Isopar M), 95%; in series [1] (setting [3]), 96%; in series [1] (tetradecane), 82%. Also, the εC in series [2] (Isopar G) was found to be 4900 cm⁻¹; in series [2] (Isopar M) it was 6000 cm⁻¹; in series [2] (decalin) it was 5200 cm⁻¹; in series [2] (tetradecane), 5200 cm⁻¹. Moreover, the “λmax (absorption-maximum wavelength)” value in series [2] (Isopar G solution) came out at 526 nm; in series [2] (Isopar M solution), 530 nm; in series [2] (decalin solution) it was 534 nm; in series [2] (n-decane solution), 527 nm; in series [2] (tetradecane solution), 530 nm. For the same compound, the Solubility in series [2] (Isopar G) is reported as 7.4%; in series [2] (Isopar M), 8.51%; in series [2] (decalin) it was 6.5%; in series [2] (setting [4]), 6.6%; in series [2] (tetradecane) it was 6.8%. The “εC (molar extinction coefficient × concentration of saturated solution)” value in series [2] (n-decane) was determined as 5700 cm⁻¹.
For `CCCCC(CC)CN(CC(CC)CCCC)c1ccc(/N=N/c2sc(C(=O)OCC)c(C)c2C(=O)OCC)c(NC(=O)CC)c1` (stereo not drawn) [Dye 7], the “Light fastness: retention of dye” value worked out at 98% in series [1] (Isopar G), 87% in series [1] (Isopar M), 98% in series [1] (setting [3]) and 81% in series [1] (tetradecane). Moreover, the εC was 6000 cm⁻¹ in series [2] (Isopar G), 6300 cm⁻¹ in series [2] (Isopar M) and 5400 cm⁻¹ in series [2] (tetradecane). For the same compound, the “λmax (absorption-maximum wavelength)” value in series [2] (Isopar G solution) worked out at 535 nm; in series [2] (Isopar M solution), 536 nm; in series [2] (n-decane solution) it was 536 nm; in series [2] (tetradecane solution), 538 nm. The Solubility in series [2] (Isopar G) stood at 10%; in series [2] (Isopar M), 10%; in series [2] (setting [4]), 10.3%; in series [2] (tetradecane), 9.7%. For the same compound, the “εC (molar extinction coefficient × concentration of saturated solution)” value in series [2] (n-decane) stood at 5700 cm⁻¹.
Turning to `CCCCC(CC)CN(CC(CC)CCCC)c1ccc(N=Nc2snc(CC)c2C#N)c(NC(C)=O)c1` (stereo not drawn) [Dye 10], the “Light fastness: retention of dye” value in series [1] (setting [3]) is given as 99%. Also, the εC in series [2] (Isopar G) was 18600 cm⁻¹; in series [2] (Isopar M), 18600 cm⁻¹; in series [2] (decalin), 6600 cm⁻¹; in series [2] (tetradecane), 16700 cm⁻¹. Also, the “λmax (absorption-maximum wavelength)” value in series [2] (Isopar G solution) is 542 nm; in series [2] (Isopar M solution) it was 542 nm; in series [2] (decalin solution), 546 nm; in series [2] (n-decane solution), 543 nm; in series [2] (tetradecane solution), 544 nm. Besides, the Solubility in series [2] (Isopar G) was determined as 20%; in series [2] (Isopar M), 20%; in series [2] (decalin) it was 6.7%; in series [2] (setting [4]), 20%; in series [2] (tetradecane), 19%. Also, the “εC (molar extinction coefficient × concentration of saturated solution)” value in series [2] (n-decane) was found to be 17000 cm⁻¹.

For the origin of these results see patent publication US8747537B2, “Ink containing heterocyclic azo dye, and dye for use in said ink” (Mitsubishi Chemical Corporation, priority 2010, dated 2014).
